Read-outs that look alike come from different tables or passages of the source.
How the values were obtained:
[1] = molecular target: Recombinant Cat D (Homo sapiens (Human), UniProt P07339); assay: In vitro enzymatic Cathepsin D (Cat D) FRET assay; type: biochemical; details: read-out: IC50 IP (μM) CatD
Outline: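 Recombinant Cat D expressed in CHO cells, assayed in 0.05 M citrate pH 3.5 with 5 mM CHAPS and 10% DMSO final. Reaction started with 20 nM FRET peptide substrate, incubated one hour, then stopped by Tris buffer to neutral pH; fluorescence read at ex 500/em 580 nm.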

[2] = tested on: Aβ40 in conditioned medium of cells stably expressing Amyloid Precursor Protein (APP); assay: In vitro BACE-1 cell-based assay (Aβ40 sandwich ELISA); details: read-out: IC50 IP (μM) BACE1 cell
Outline: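 APP-expressing cells treated 24 h at 37 °C with compound in 10-point dose response (top 100 μM or 10 μM, 0.1% DMSO final). Secreted Aβ40 in conditioned medium quantified by sandwich ELISA (pAb40 capture, biotinylated 6E10 detection, time-resolved europium fluorescence); IC50 from percent inhibition versus concentration.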

[3] = molecular target: human recombinant BACE2 (Homo sapiens (Human), UniProt Q9Y5Z0); assay: In vitro enzymatic BACE2 FRET assay; type: biochemical; details: read-out: IC50 IP (μM) BACE2 enzyme
Outline: (§1)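 Protease purified by Ni-NTA chromatography; start with FRET substrate (50 nM); incubate 1 h; quench with Tris to neutral pH; read fluorescence ex 488 / em 590 nm.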

[4] = molecular target: human recombinant BACE1 (Homo sapiens (Human), UniProt P56817); assay: In vitro enzymatic BACE1 FRET assay; type: biochemical; details: read-out: IC50 IP (μM) BACE1 enzyme
Outline: as §1

Chain of Recombinant Cat D (P07339 65-412): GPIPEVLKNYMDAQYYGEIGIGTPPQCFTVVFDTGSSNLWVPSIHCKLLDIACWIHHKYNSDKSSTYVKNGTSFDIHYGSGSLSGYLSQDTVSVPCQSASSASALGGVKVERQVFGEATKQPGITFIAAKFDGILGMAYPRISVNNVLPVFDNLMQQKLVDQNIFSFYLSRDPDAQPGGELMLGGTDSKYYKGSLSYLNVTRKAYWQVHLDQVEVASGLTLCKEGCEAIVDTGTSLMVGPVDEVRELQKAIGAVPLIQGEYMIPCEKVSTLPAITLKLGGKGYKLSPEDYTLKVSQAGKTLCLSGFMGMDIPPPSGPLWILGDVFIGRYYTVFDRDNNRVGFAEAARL
Chain of human recombinant BACE2 (Q9Y5Z0 63-518): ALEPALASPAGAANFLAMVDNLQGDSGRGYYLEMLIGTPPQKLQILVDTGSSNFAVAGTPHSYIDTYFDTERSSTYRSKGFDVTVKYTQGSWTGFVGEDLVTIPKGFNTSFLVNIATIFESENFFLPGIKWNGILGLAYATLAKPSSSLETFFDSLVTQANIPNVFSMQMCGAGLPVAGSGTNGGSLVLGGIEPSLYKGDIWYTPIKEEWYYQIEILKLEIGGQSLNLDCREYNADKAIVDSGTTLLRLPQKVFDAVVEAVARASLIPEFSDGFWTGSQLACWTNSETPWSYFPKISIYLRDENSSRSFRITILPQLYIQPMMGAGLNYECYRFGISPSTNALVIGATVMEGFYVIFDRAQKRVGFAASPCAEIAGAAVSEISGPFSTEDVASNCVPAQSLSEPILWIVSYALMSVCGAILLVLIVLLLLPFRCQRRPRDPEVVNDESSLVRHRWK
Chain of human recombinant BACE1 (P56817 46-501): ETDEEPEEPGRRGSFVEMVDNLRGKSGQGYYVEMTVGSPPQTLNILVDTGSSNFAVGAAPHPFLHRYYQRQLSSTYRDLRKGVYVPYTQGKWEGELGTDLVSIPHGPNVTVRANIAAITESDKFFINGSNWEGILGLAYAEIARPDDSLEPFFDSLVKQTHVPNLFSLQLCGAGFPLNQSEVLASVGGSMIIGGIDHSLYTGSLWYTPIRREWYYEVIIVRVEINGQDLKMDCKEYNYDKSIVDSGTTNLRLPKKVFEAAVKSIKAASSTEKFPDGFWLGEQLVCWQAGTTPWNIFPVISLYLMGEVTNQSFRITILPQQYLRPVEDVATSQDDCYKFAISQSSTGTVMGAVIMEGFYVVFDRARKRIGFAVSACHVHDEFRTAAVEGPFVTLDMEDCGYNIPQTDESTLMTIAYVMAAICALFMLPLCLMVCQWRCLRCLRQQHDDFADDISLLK

IC50 [1] [µM] | IC50 [2] [µM] | IC50 [3] [µM] | IC50 [4] [µM] | IC50 ([1]; Cathepsin D FRET enzyme assay) [µM] | IC50 ([2]; BACE1 cell-based assay) [µM] | IC50 ([3]; BACE2 FRET enzyme assay) [µM] | IC50 ([4]; BACE1 FRET enzyme assay) [µM] | Structure (SMILES)
2290 | 0.00431 | 0.00196 | 0.00216 |  |  |  |  | COC[C@]12C[C@H]1[C@@](CF)(c1cc(NC(=O)c3ncc(C#N)cc3C)ccc1F)N=C(N)S2 [Example 716, N-(3-((1S,5S,6S)-3-amino-5-(fluoromethyl)-1-(methoxymethyl)-2-thia-4-azabicyclo[4.1.0]hept-3-en-5-yl)-4-fluorophenyl)-5-cyano-3-methyl-2-pyridinecarboxamide]
12.9 | 0.000378 | < 0.00203 | 0.000393 |  |  |  |  | C#CCOc1cnc(C(=O)Nc2cc(F)c(F)c([C@@]3(C)N=C(N)S[C@@]4(C(=O)N5CCCC5)C[C@H]43)c2)cn1 [Example 934, N-(3-((1S,5S,6S)-3-amino-5-methyl-1-(1-pyrrolidinylcarbonyl)-2-thia-4-azabicyclo[4.1.0]hept-3-en-5-yl)-4,5-difluorophenyl)-5-(2-propyn-1-yloxy)-2-pyrazinecarboxamide]
730 | 0.014 | 0.401 | 0.0309 |  |  |  |  | C#CCOc1cnc2c(Nc3cnc(OC)c([C@@]4(C)N=C(N)S[C@@]5(CF)C[C@H]54)c3)ncnc2c1 [Example 625, N-(5-((1S,5S,6S)-3-amino-1-(fluoromethyl)-5-methyl-2-thia-4-azabicyclo[4.1.0]hept-3-en-5-yl)-6-methoxy-3-pyridinyl)-7-(2-propyn-1-yloxy)pyrido[3,2-d]pyrimidin-4-amine]
> 400 | 0.0453 | 0.29 | 0.0053 |  |  |  |  | C[C@]1(c2cc(NC(=O)c3ccc(OCC(F)(F)F)cn3)cc(F)c2F)N=C(N)S[C@@]2(CF)C[C@H]21 [Example 692, N-(3-((1S,5S,6S)-3-amino-1-(fluoromethyl)-5-methyl-2-thia-4-azabicyclo[4.1.0]hept-3-en-5-yl)-4,5-difluorophenyl)-5-(2,2,2-trifluoroethoxy)-2-pyridinecarboxamide]
1110 | 0.0048 | 0.239 | 0.00849 |  |  |  |  | NC1=N[C@](CF)(c2cc(Nc3ncnc4cc(OCc5ncco5)cnc34)ccc2F)[C@@H]2C[C@@H]2S1 [Example 763, N-(3-((1S,5S,6S)-3-amino-5-(fluoromethyl)-2-thia-4-azabicyclo[4.1.0]hept-3-en-5-yl)-4-fluorophenyl)-7-(1,3-oxazol-2-ylmethoxy)pyrido[3,2-d]pyrimidin-4-amine]
297 | 0.021 | 0.48 | 0.00565 |  |  |  |  | COC[C@H](C)Oc1cnc(C(=O)Nc2ccc(F)c([C@@]3(C)N=C(N)S[C@@]4(C(=O)NC(C)(C)C)C[C@H]43)c2)cn1 [Example 1003, (1S,5S,6S)-3-amino-N-tert-butyl-5-(2-fluoro-5-(((5-((1S)-2-methoxy-1-methylethoxy)-2-pyrazinyl)carbonyl)amino)phenyl)-5-methyl-2-thia-4-azabicyclo[4.1.0]hept-3-ene-1-carboxamide]
1200 | 0.0489 | 0.246 | 0.00294 |  |  |  |  | C[C@]1(c2cc(NC(=O)c3ncc(OCC(F)(F)F)cc3Cl)cc(F)c2F)N=C(N)S[C@@]2(CF)C[C@H]21 [Example 693, N-(3-((1S,5S,6S)-3-amino-1-(fluoromethyl)-5-methyl-2-thia-4-azabicyclo[4.1.0]hept-3-en-5-yl)-4,5-difluorophenyl)-3-chloro-5-(2,2,2-trifluoroethoxy)-2-pyridinecarboxamide]
638 | 0.007 | 0.0685 | 0.00142 |  |  |  |  | C#CCOc1cnc2c(Nc3ccc(F)c([C@@]4(C)N=C(N)S[C@@]5([C@@H](O)C(F)(F)F)C[C@H]54)c3)nccc2n1 [Example 672, (1S)-1-((1S,5S,6S)-3-amino-5-(2-fluoro-5-((2-(2-propyn-1-yloxy)pyrido[3,4-b]pyrazin-5-yl)amino)phenyl)-5-methyl-2-thia-4-azabicyclo[4.1.0]hept-3-en-1-yl)-2,2,2-trifluoroethanol]
 |  |  |  | 295 | 0.14 | 0.0885 | 0.0289 | COc1cnc2c(Nc3cc(F)c(F)c([C@@]4(CF)N=C(N)S[C@H]5C[C@H]54)c3)nccc2n1 [Example 62, N-(3-((1S,5S,6S)-3-amino-5-(fluoromethyl)-2-thia-4-azabicyclo[4.1.0]hept-3-en-5-yl)-4,5-difluorophenyl)-2-methoxypyrido[3,4-b]pyrazin-5-amine]
115 | 0.000847 | 0.0182 | 0.00385 |  |  |  |  | C[C@]1(c2cc(Nc3ncnc4cc(OCc5ncco5)cnc34)cc(F)c2F)N=C(N)S[C@@]2(C(=O)N3CCCC3)C[C@H]21 [Example 936, N-(3-((1S,5S,6S)-3-amino-5-methyl-1-(1-pyrrolidinylcarbonyl)-2-thia-4-azabicyclo[4.1.0]hept-3-en-5-yl)-4,5-difluorophenyl)-7-(1,3-oxazol-2-ylmethoxy)pyrido[3,2-d]pyrimidin-4-amine]
14.9 | 0.000324 | 0.00235 | 0.0001 |  |  |  |  | C#CCOc1cnc(C(=O)Nc2cc(F)c(F)c([C@@]3(C)N=C(N)S[C@@]4(C(=O)N5CCOCC5)C[C@H]43)c2)cn1 [Example 1004, N-(3-((1S,5S,6S)-3-amino-5-methyl-1-(morpholine-4-carbonyl)-2-thia-4-azabicyclo[4.1.0]hept-3-en-5-yl)-4,5-difluorophenyl)-5-(prop-2-yn-1-yloxy)pyrazine-2-carboxamide]
 |  |  |  | 958 | 0.00851 | < 0.00203 | 0.00152 | C[C@]1(c2cc(Nc3nccc4cc(Cl)cnc34)cc(F)c2F)N=C(N)S[C@@]2(CO)C[C@H]21 [Example 30, ((1S,5S,6S)-3-amino-5-(5-((3-chloro-1,7-naphthyridin-8-yl)amino)-2,3-difluorophenyl)-5-methyl-2-thia-4-azabicyclo[4.1.0]hept-3-en-1-yl)methanol]
1940 | 0.164 | 1.77 | 0.101 |  |  |  |  | COC[C@]12C[C@H]1[C@@](C)(c1cc(NC(=O)c3cnc(O[C@@H](C)C(F)(F)F)cn3)ccc1F)N=C(N)S2 (single isomer, unassigned) [Example 995]
> 133 | 0.05 | 0.464 | 0.00372 |  |  |  |  | COC[C@H](C)Oc1cnc2c(Nc3cc(F)c(F)c([C@@]4(C)N=C(N)S[C@@]5(C(F)F)C[C@@H]45)c3)nccc2n1 [Example 894, N-(3-((1S,5S,6S)-3-amino-1-(difluoromethyl)-5-methyl-2-thia-4-azabicyclo[4.1.0]hept-3-en-5-yl)-4,5-difluorophenyl)-2-((1S)-2-methoxy-1-methylethoxy)pyrido[3,4-b]pyrazin-5-amine]
695 | 0.00113 | 0.00491 | 0.0021 |  |  |  |  | CN(C)C(=O)[C@]12C[C@H]1[C@@](C)(c1cc(NC(=O)c3cnc(OCC(F)(F)F)cn3)cc(F)c1F)N=C(N)S2 [Example 926, (1S,5S,6S)-3-amino-5-(2,3-difluoro-5-(((5-(2,2,2-trifluoroethoxy)-2-pyrazinyl)carbonyl)amino)phenyl)-N,N,5-trimethyl-2-thia-4-azabicyclo[4.1.0]hept-3-ene-1-carboxamide]
791 | 0.000961 | 0.0244 | 0.000878 |  |  |  |  | [2H]C([2H])([2H])OC[C@]12C[C@H]1[C@@](C)(c1cc(Nc3nccc4nc(OCC#C)cnc34)cnc1F)N=C(N)S2 [Example 853, N-(5-((1S,5S,6S)-3-amino-5-methyl-1-(((~2~H_3_)methyloxy)methyl)-2-thia-4-azabicyclo[4.1.0]hept-3-en-5-yl)-6-fluoro-3-pyridinyl)-2-(2-propyn-1-yloxy)pyrido[3,4-b]pyrazin-5-amine]
856 | 0.0457 | 0.385 | 0.0282 |  |  |  |  | COC[C@]12C[C@H]1[C@@](C)(c1cc(Nc3nccc4cc(OCC#N)cnc34)cc(F)c1F)N=C(N)S2 [Example 729, ((8-((3-((1S,5S,6S)-3-amino-1-(methoxymethyl)-5-methyl-2-thia-4-azabicyclo[4.1.0]hept-3-en-5-yl)-4,5-difluorophenyl)amino)-1,7-naphthyridin-3-yl)oxy)acetonitrile]
> 400 | 0.00659 | < 0.00203 | 0.00373 |  |  |  |  | NC1=N[C@](CF)(c2cc(NC(=O)c3ccc(Cl)cn3)ccc2F)[C@@H]2C[C@]2(/C=C/CO)S1 [Example 756, N-(3-((1R,5S,6S)-3-amino-5-(fluoromethyl)-1-((E)-3-hydroxyprop-1-en-1-yl)-2-thia-4-azabicyclo[4.1.0]hept-3-en-5-yl)-4-fluorophenyl)-5-chloropicolinamide]
669 | 0.0142 | 0.0384 | 0.00303 |  |  |  |  | C#CCOc1cnc2c(Nc3ccc(F)c([C@@]4(CF)N=C(N)S[C@H]5C[C@H]54)c3)nccc2n1 [Example 762, N-(3-((1S,5S,6S)-3-amino-5-(fluoromethyl)-2-thia-4-azabicyclo[4.1.0]hept-3-en-5-yl)-4-fluorophenyl)-2-(2-propyn-1-yloxy)pyrido[3,4-b]pyrazin-5-amine]
